Measurements taken from patent US20170035884A1, “AQUEOUS GELLING COMPOSITIONS OF SOLUBLE ACTIVE PHARMACEUTICAL PEPTIDES PROVIDING MODIFIED RELEASE” (Ipsen Pharma S.A.S., priority 2012, published 2017).
Counter-ions that a name gives are not always drawn. Like-named read-outs stand apart in the source and are kept apart here.

Experiment: Solubility testing of peptide 1 salts in gelling compositions (HPLC after filtration)
Format: physicochemical
Description: The solubility of the peptide 1 salts in the gelling compositions of Table 1 was evaluated using HPLC analysis after filtration.

Question: With `CC(=O)NC(CCCNC(=N)N)C(=O)N[C@H]1CSSC[C@@H](C(N)=O)NC(=O)[C@H](Cc2c[nH]c3ccccc23)NC(=O)[C@H](CCCNC(=N)N)NC(=O)[C@@H](Cc2ccccc2)NC(=O)[C@H](Cc2cnc[nH]2)NC(=O)[C@@H](C)NC1=O` (stereo partly drawn) [peptide 1 heptanoate salt, Ac-Arg-c(Cys-D-Ala-His-D-Phe-Arg-Trp-Cys)-NH2] as the compound, how does the solubility (in 32% PEG 400) read?
Answer: The solubility was 28.1 mg/mL.

Question: Which solubility (38% glycerol gelling composition, in 38% glycerol, read-out: solubility) does the source give for `CC(=O)NC(CCCNC(=N)N)C(=O)N[C@H]1CSSC[C@@H](C(N)=O)NC(=O)[C@H](Cc2c[nH]c3ccccc23)NC(=O)[C@H](CCCNC(=N)N)NC(=O)[C@@H](Cc2ccccc2)NC(=O)[C@H](Cc2cnc[nH]2)NC(=O)[C@@H](C)NC1=O` (stereo partly drawn) [peptide 1 acetate salt, Ac-Arg-c(Cys-D-Ala-His-D-Phe-Arg-Trp-Cys)-NH2] here?
Answer: The solubility was ≥ 100 mg/mL.

Question: And the solubility (in 32% PEG 400)?
Answer: The solubility was ≥ 100 mg/mL.
